Assay results from US20200038513A1, “MODULATORS OF FAK PROTEOLYSIS AND ASSOCIATED METHODS OF USE” (ARVINAS OPERATIONS, INC., priority 2018, published 2020).

Key:
Fak [1] = biological target: T1, Fak (Homo sapiens, UniProt Q05397); assay: Fak degradation, immunoblotting in PC3 cells; type: cell-based; conditions: PC3 cells, 24 hour treatment; for Dmax: PC-3, degradation maximum, n = 3
Experimental: PC3 cells were cultured in F12-K (Kaighn's Modification of Ham's F-12 Medium), supplemented with 10% fetal bovine serum (FBS) and 1% penicillin-streptomycin at 37° C. and 5% CO2.
If not indicated otherwise, cells were seeded and grown to 80% confluency and were treated with compound or control for 24 hours. […] After 20 minutes the mixture was spun down at 16,000×g for 10 minutes at 4° C. to pellet insoluble materials. Protein concentration of supernatants were determined via BCA assay (Thermo Fisher) before addition of NuPAGE sample buffer containing 5% β-Me and boiling at 95° C. for 10 minutes. Equal amounts of protein were subjected to SDS-PAGE and subsequent electrophoretic transfer onto nitrocellulose membrane. […] Immunoblots were developed using enhanced chemiluminescence and visualized using a Bio-Rad Chemi-Doc MP Imaging System and quantitated with Image Lab v.5.2.1 software (Bio-Rad Laboratories). Data analysis and statistics was performed using Prism 7.0 (GraphPad).
Examination of Target Protein (Fak) Degradation.

Fak [2] = biological target: T1, Fak; assay: Kinase activity assay (Reaction Biology Corp.); type: biochemical; design: purchased Reaction Biology Corp. (contract assay service); conditions: 10 μM ATP, n = 2
Experimental: Reactions were carried out at 10 μM ATP. IC50 values were calculated using Prism 7.0 (GraphPad).

[3] = Pharmacokinetics of intraperitoneal or intravenous injection in CD1 mice; type: in vivo
Experimental: The pharmacokinetics of exemplary compounds 103, 107, 100, 101, and 102 was examined for intraperitoneal and intravenous administration. The desired serial concentrations of working solutions were achieved by diluting stock solution (1 mg/mL in DMSO) of analyte with methanol. In particular, 20 μL of working solutions (1, 2, 5, 10, 50, 100, 500, 1000, 2000 ng/mL) were added to 20 μL of the blank CD1 mice plasma to achieve calibration standards of 1-2000 ng/mL (1, 2, 5, 10, 50, 100, 500, 1000, 2000 ng/mL) in a total volume of 40 μL. Dose of IV and IP were diluted by 1000 fold and 10000 with methanol, 20 μL of the diluted dose solutions were added to 20 μL of the blank CD1 mice plasma to achieve dose samples. Next, 40 μL standards and 40 μL dose samples were added to 20 μL of IS (100 ng/mL) and 200 μL of acetonitrile for precipitating protein respectively. Then the samples were vortexed for 30 seconds. After centrifugation at 4 degree Celsius, 4000 rpm for 15 minutes, the supernatant was diluted 3 times with water. 10 μL of the diluted supernatant was injected into the LC/MS/MS system for quantitative analysis.
Exemplary compounds 103, 107, 100, 101, and 102 were administered intravenously (5 second injection of 10% HP-b-CD and 40 mM sodium acetate and 40 mM NaCl in water, pH4.5) or intraperitoneally (5% EtOH and 5% Solutol HS15 in D5W(ESD-2)) to 6-8 week old male CD1 mice (3 mice per treatment group for a total of 12 mice) at the time points indicated below in Table 7. The mice had free access to food and water.
Dorsal metatarsal vein samples (30 μL), except that the final sample was acquired via a heart puncture, were taken from the mice at the same the administration time points as shown in Table 7.

T1 sequence (Q05397 whole entry): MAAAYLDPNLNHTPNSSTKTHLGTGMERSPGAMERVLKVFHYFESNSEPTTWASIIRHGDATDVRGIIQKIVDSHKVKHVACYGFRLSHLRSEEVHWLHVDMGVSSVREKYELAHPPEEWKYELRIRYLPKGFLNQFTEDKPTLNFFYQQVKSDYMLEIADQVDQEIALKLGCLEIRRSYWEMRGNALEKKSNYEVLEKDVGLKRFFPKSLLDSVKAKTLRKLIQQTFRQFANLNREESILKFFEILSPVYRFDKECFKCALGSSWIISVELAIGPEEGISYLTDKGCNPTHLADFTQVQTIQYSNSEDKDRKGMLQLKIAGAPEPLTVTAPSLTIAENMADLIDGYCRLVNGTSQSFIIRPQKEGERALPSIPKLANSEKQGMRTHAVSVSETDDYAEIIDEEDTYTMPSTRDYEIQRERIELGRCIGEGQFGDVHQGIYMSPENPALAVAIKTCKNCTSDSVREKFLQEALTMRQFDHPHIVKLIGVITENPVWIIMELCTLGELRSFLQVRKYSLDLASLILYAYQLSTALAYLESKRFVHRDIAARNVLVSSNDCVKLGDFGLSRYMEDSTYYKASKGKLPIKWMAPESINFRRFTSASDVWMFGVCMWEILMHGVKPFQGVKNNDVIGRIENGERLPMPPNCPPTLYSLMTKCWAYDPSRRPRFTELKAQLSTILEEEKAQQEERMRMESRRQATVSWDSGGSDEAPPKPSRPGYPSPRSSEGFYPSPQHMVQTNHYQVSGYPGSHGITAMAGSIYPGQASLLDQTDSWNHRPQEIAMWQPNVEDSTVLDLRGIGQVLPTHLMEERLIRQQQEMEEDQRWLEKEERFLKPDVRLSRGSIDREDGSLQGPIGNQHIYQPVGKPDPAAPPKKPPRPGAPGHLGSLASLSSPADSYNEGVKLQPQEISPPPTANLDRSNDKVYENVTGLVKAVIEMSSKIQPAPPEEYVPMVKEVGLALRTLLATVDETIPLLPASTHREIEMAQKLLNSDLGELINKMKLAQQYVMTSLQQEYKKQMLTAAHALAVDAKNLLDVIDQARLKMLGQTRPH

Dmax (Fak [1]) [%] | DC50 (Fak [1]; half-maximal degradation concentration) [nM] | IC50 (Fak [2]) [nM] | Fak degradation / effect on Fak levels (in words) (Fak [1]) | Molecule | AUClast (h * ng/mL) IP ([3]; IP) [ng·h/mL] | T ½ (h) IP ([3]; IP) [h] | AUClast (h * ng/mL) IV ([3]; IV) [ng·h/mL] | T ½ (h) IV ([3]; IV) [h]
91 | 48.1 | 6.1 ± 0.1 |  | Cc1ncsc1-c1ccc(CNC(=O)[C@@H]2C[C@@H](O)CN2C(=O)[C@@H](NC(=O)CCOCCOCCOCCOCCOc2ccc(Nc3ncc(C(F)(F)F)c(NCc4cccc(N(C)S(C)(=O)=O)c4)n3)cc2)C(C)(C)C)cc1 [Compound 105, (2S,4R)-1-((S)-17-(tert-butyl)-1-(4-((4-((3-(N-methylmethylsulfonamido)benzyl)amino)-5-(trifluoromethyl)pyrimidin-2-yl)amino)phenoxy)-15-oxo-3,6,9,12-tetraoxa-16-azaoctadecan-18-oyl)-4-hydroxy-N-(4-(4-methylthiazol-5-yl)benzyl)pyrrolidine-2-carboxamide] |  |  |  | 
0 |  | 11.2 | no Fak degradation | Cc1ncsc1-c1ccc(CNC(=O)[C@@H]2C[C@H](O)CN2C(=O)[C@@H](NC(=O)CCOCCOc2ccc(Nc3ncc(C(F)(F)F)c(NCc4cccc(N(C)S(C)(=O)=O)c4)n3)cc2)C(C)(C)C)cc1 [Compound 106, (2S,4S)-1-((S)-3,3-dimethyl-2-(3-(2-(4-((4-((3-(N-methylmethylsulfonamido)benzyl)amino)-5-(trifluoromethyl)pyrimidin-2-yl)amino)phenoxy)ethoxy)propanamido)butanoyl)-4-hydroxy-N-(4-(4-methylthiazol-5-yl)benzyl)pyrrolidine-2-carboxamide] |  |  |  | 
 |  |  |  | N-(2-((2-(2,6-dioxopiperidin-3-yl)-1,3-dioxoisoindolin-4-yl)oxy)ethyl)-3-(3-(4-((4-((3-(N-methylmethylsulfonamido)benzyl)amino)-5-(trifluoromethyl)pyrimidin-2-yl)amino)phenoxy)propoxy)propanamide [Compound 108] | 208 | 1.10 | 3.80 | 0.058
